Data published in patent US20260092919A1, “REAGENT FOR MEASURING TYROSINE KINASE ACTIVITY, AND USE THEREOF” (HILO CO. LTD., priority 2022, published 2026).

Assays:
[1] = target: EGFR tyrosine kinase activity in HCC827 cells (Homo sapiens, UniProt P00533, DEL746-750); assay: FRET efficiency in HCC827 cells expressing Pickles biosensor
Protocol: (§1) Fluorescence images of cells were acquired using an IX81 research-grade inverted microscope (Olympus) equipped with a stage incubator (LCI), a motorized XY-stage (Chuo Precision Industrial), and a CoolSNAP Myo cooled charge-coupled device (CCD) camera (Nippon Roper) under the control of MetaMorph software (Molecular Devices Japan). […] White light from a SOLA light engine (Lumencore) was attenuated by a 20% neutral density filter and used as excitation light after interference by each filter. Images were captured using a 60× oil immersion objective lens (numerical aperture 1.40) (4×4 binning, fluorescence images: exposure time 200 msec, differential interference contrast images: exposure time 20 msec).
(§2) After 24 hours, the medium was changed to phenol red-free MEM-F12 medium, and the cells were serum-starved for 4 hours. Time-lapse fluorescence imaging was then initiated, with FRET, CFP, and DIC images acquired every 30 seconds. Cells were stimulated by adding EGF to a final concentration of 50 ng/ml at 10 minutes after starting imaging, and imaging was continued for another 50 minutes. Following background subtraction, FRET efficiency was calculated as the ratio of cellular fluorescence intensity (FRET/CFP) from each channel at each time point.

[2] = test system: EGFR tyrosine kinase activity in H1299 cells; assay: FRET efficiency in H1299 cells expressing Pickles_2.34NES
Protocol: as §1, §2

[3] = target: T1, EGFR tyrosine kinase activity in A549 cells (Homo sapiens, UniProt P00533); assay: FRET efficiency in A549 cells expressing Pickles_2.34NES; assay type: cell-based
T1 construct: pFX-Pickles_2.34NES was introduced into A549 cells and H1299 cells; endogenous in cells; host or cells: A549
Protocol: as §1, §2

[4] = test system: EGFR tyrosine kinase activity; assay: FRET efficiency (FRET/CFP) time-lapse imaging in Cos-1 cells expressing biosensor; assay type: cell-based, African green monkey
Protocol: as §1, §2

Substance	response of FRET efficiency to EGF stimulation compared to Pickles_2.34 [1]	increase in FRET efficiency upon EGF stimulation [2]	change in FRET efficiency upon EGF stimulation [3]	change in FRET efficiency with HGF stimulation ([4]; Cos-1 cells expressing Pickles, HGF instead of EGF, same amount)	increase in FRET efficiency upon EGF stimulation ([4]; Cos-1 cells expressing the biosensor, EGF 50 ng/ml) [%]
Pickles_2.34NES: SEQ ID NO: 7: Pickles_2.34 with the NES from protein kinase A inhibitor added to its N-terminus	higher sensitivity	slight	increased significantly		
Pickles_2.34: SEQ ID NO: 6: m1Venus, CrkL residues 1-222 with D94A, cp173-ECFP FRET biosensor				did not change	77.7
